Experimental data: patent publication US8343543B2, “Lipase inhibiting composition” (Hoffmann-La Roche Inc., priority 2001, dated 2013)

Experiment: Orlistat transfer into oil in vitro
Type: physicochemical
Conditions: after 10 min
Description: Orlistat (4 mg) suspensions stabilized by sucroseesters (2 mg) were transferred into 5 ml of a 10% oil in water emulsion (pH value 4.5; oil components: olive oil and cream respectively). The dispersion underwent end-over end mixing for a desired period of time. The oil phase was separated by cold centrifugation and the orlistat content in the oil phase was determined by HPLC. For comparison, an adequate experiment was also performed with a suspension of XENICAL® brand of orlistat-containing pharmaceutical composition. L-1695, P-1670, S-1670, O-1570 are commercial sucroseesters (Sucroselaurate, Sucrosepalmitate, Sucrosestearate, Sucroseoleate respectively) from Mitsubishi-Kagaku Foods, Japan.

Structure (SMILES): CCCCCCCCCCC[C@@H](C[C@@H]1OC(=O)[C@H]1CCCCCC)OC(=O)[C@H](CC(C)C)NC=O [orlistat]
- transfer into olive oil, times more efficient than transfer into cream: 7
